This assay addresses human PSMA (Homo sapiens (Human), UniProt Q04609). The assay is described as follows: Enzymatic assay for in vitro evaluation of PSMA inhibitors (fluorescent assay of PSMA activity, NAAG substrate, OPA detection of glutamate). It is filed as biochemical.

Where a SMILES comes first, the peptide text is derived from it. [ ]: non-standard residue; d: D form. The star is where a group is joined. Boc = CC(C)(C)OC(=O)*; Nlys = NCCCCNCC(=O)O

human PSMA, sequence (Q04609 whole entry): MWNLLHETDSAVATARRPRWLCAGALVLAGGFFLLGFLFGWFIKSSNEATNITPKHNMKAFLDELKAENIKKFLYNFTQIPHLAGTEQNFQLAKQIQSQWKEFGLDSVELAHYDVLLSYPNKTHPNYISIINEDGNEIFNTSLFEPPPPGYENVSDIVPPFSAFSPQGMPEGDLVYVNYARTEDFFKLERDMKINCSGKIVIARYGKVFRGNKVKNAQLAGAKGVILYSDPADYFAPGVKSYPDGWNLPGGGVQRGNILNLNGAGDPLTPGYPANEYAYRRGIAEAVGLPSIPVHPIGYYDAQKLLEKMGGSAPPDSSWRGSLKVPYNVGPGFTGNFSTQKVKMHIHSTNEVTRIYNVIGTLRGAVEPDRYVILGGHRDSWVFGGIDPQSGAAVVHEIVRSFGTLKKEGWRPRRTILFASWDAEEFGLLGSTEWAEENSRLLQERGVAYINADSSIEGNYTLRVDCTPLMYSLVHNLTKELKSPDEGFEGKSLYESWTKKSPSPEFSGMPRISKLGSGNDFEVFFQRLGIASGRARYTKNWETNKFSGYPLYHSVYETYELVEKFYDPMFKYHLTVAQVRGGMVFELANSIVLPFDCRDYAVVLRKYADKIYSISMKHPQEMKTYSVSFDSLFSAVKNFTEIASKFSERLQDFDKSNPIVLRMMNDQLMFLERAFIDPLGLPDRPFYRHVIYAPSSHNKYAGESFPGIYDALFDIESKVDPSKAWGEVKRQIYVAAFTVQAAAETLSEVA

Usually Ki stands for the equilibrium dissociation constant of an inhibitor or competing ligand from its target. The compound `O=C(O)CC[C@H](NC(=O)N[C@@H](Cc1ccc(NC(=O)Nc2ccc(-n3cc(CCCF)nn3)cc2)cc1)C(=O)O)C(=O)O` [P212, (S)-2-(3-((S)-1-Carboxy-2-(4-(3-(4-(4-(3-fluoropropyl)-1H-1,2,3-triazol-1-yl)phenyl)ureido)phenyl)ethyl)ureido)pentanedioic Acid] had a Ki of 3.1 nM. The “PSMA Blkg % (10 μM)” value (10 μM) was 99%. `O=C(O)CC[C@H](NC(=O)C[C@H](NC(=O)OCc1ccccc1)C(=O)O)C(=O)O` [P015, (S)-2-((S)-3-(((Benzyloxy)carbonyl)amino)-3-carboxypropanamido)pentanedioic Acid]: under “compound at 10 μM”, the “PSMA Blkg % (10 μM)” value is 0%. For the compound `O=C(O)CCC(C(=O)O)N1C(=O)N[C@@H](CC2CCN(C(=O)CCCc3ccc(-n4cc(CCCF)nn4)cc3)CC2)C1=O` (stereo partly shown) [P231], the “PSMA Blkg % (1.0 μM)” value was 63%. The compound `O=C(O)CC[C@H](NC(=O)N[C@@H](Cc1ccc(OCCOCCOCCn2cc(CCCF)nn2)cc1)C(=O)O)C(=O)O` [P203, (S)-2-(3-((S)-1-Carboxy-2-(4-(2-(2-(2-(4-(3-fluoropropyl)-1H-1,2,3-triazol-1-yl)ethoxy)ethoxy)ethoxy)phenyl)ethyl)ureido)pentanedioic Acid] returned a Ki of 41 nM. Further, under “10 μM”, the “PSMA Blkg % (10 μM)” value is recorded as 97%.

On to `CC(C)(C)OC(=O)NCCCCNCC(=O)N[C@@H](CCC(=O)O)C(=O)O` [P051, (S)-2-(2-(4-(tert-Butoxycarbonylamino)butylamino)acetamido)pentanedioic Acid] (H-[Nlys](Boc)-Glu-OH), for which the “PSMA Blkg % (10 μM)” value (compound at 10 μM) was determined as 4%. For the compound `O=C(O)CC[C@H](NC(=S)CN(O)C(=O)CCCc1ccc(-n2cc(CCCF)nn2)cc1)C(=O)O` [P145, (S)-2-(2-(4-(4-(4-(3-Fluoropropyl)-1H-1,2,3-triazol-1-yl)phenyl)-N-hydroxy-butanamido)ethanethioamido)pentanedioic Acid], where the note is “compound at 10 μM”, the “PSMA Blkg % (10 μM)” value stood at 7%. For `O=C(O)CC[C@@H](NC(=O)N[C@@H](CCCCNC(=O)OCc1ccccc1)C(=O)O)C(=O)O` [P295, (9S,13R)-3,11-Dioxo-1-phenyl-2-oxa-4,10,12-triazapentadecane-9,13,15-tricarboxylic Acid], the “PSMA Blkg % (1.0 μM)” value worked out at 45%. In the case of `O=C(O)CC[C@H](NC(=O)N[C@@H](CCCCNC(=S)Nc1ccc(-n2cc(CCCF)nn2)cc1)C(=O)O)C(=O)O` [P200, (S)-2-(3-((S)-1-Carboxy-5-(3-(4-(4-(3-fluoropropyl)-1H-1,2,3-triazol-1-yl)phenyl)thioureido)pentyl)-ureido)pentanedioic Acid], the Ki is below 0.3 nM. Further, the “PSMA Blkg % (10 μM)” value (10 μM) is listed as 95%.

The compound `O=C(O)CC[C@H](NC(=O)N[C@@H](CCCCNC(=O)OCc1ccccc1)C(=O)O)C(=O)O` [P033, (9S,13S)-3,11-Dioxo-1-phenyl-2-oxa-4,10,12-triazapentadecane-9,13,15-tricarboxylic Acid] had a Ki of 0.78 nM. The “PSMA Blkg % (10 μM)” value (compound at 10 μM) was found to be 89%. For the compound `O=C(O)CC[C@@H](C(=O)O)N(O)C(=O)N[C@@H](CCCCNC(=O)CCCc1ccc(-n2cc(CCCF)nn2)cc1)C(=O)O` [P147, (S)-2-(3-((S)-1-Carboxy-5-(4-(4-(4-(3-fluoropropyl)-1H-1,2,3-triazol-1-yl)phenyl)butanamido)pentyl)-1-hydroxyureido)pentanedioic Acid], under “compound at 10 μM”, the “PSMA Blkg % (10 μM)” value turned out to be 69%.

`O=C(O)CCC(CP(=O)(O)OC[C@@H]1CCCN1C(=O)Cc1ccccc1)C(=O)O` (stereo partly drawn) [P205, 2-((Hydroxy(((S)-1-(2-phenylacetyl)pyrrolidin-2-yl)methoxy)phosphoryl)methyl)pentanedioic Acid]: under “10 μM”, the “PSMA Blkg % (10 μM)” value is recorded as 79%. For the compound `N#C/N=C(/N[C@@H](CCCCNC(=O)c1ccc(-n2cc(CCCF)nn2)cc1)C(=O)O)N[C@@H](CCC(=O)O)C(=O)O` [P153, (S)-2-(3-((S)-1-Carboxy-5-(4-(4-(3-fluoropropyl)-1H-1,2,3-triazol-1-yl)benzamido)pentyl)-2-cyanoguanidino)pentanedioic Acid], where the note is “compound at 10 μM”, the “PSMA Blkg % (10 μM)” value was found to be 63%. On the same count and under the same terms, the value for `O=C(O)CC[C@@H](C(=O)O)N1C(=O)CC(=O)N([C@@H](CCCCNC(=O)OCc2ccc([N+](=O)[O-])cc2)C(=O)O)C1=O` [P120, (S)-2-(3-((S)-1-Carboxy-5-((4-nitrobenzyloxy)carbonylamino)pentyl)-2,4,6-trioxotetrahydropyrimidin-1(2H)-yl)pentanedioic Acid] was 15%.

With `O=C(O)CC[C@H](NC(=O)N[C@@H](CCCCNc1nc(-c2cccc(NC(=O)CCOCCOCCOCCOCCNC(=O)Cn3cc(CCCF)nn3)c2)cs1)C(=O)O)C(=O)O` [P254, (S)-2-(3-((S)-1-Carboxy-5-(4-(3-(1-(4-(3-fluoropropyl)-1H-1,2,3-triazol-1-yl)-2-oxo-6,9,12,15-tetraoxa-3-azaoctadecanamido)phenyl)thiazol-2-ylamino)pentyl)ureido)-pentanedioic Acid], the affinity corresponds to a Ki of 0.4 nM and the “PSMA Blkg % (1.0 μM)” value is 95%.

For the compound `O=C(O)CC[C@H](NC(=O)N[C@@H](CCCCNC(=O)CC[C@H](NC(=O)Cn1cc(CCCF)nn1)C(=O)NCCCC[C@H](NC(=O)N[C@@H](CCC(=O)O)C(=O)O)C(=O)O)C(=O)O)C(=O)O` [P261, (3S,7S,14S,23S,27S)-14-(2-(4-(3-Fluoropropyl)-1H-1,2,3-triazol-1-yl)acetamido)-5,13,17,25-tetraoxo-4,6,12,18,24,26-hexaazanonacosane-1,3,7,23,27,29-hexacarboxylic Acid], affinity was put at a Ki of 1 nM and the “PSMA Blkg % (1.0 μM)” value is given as 98%. The compound `CN(C(=O)N[C@@H](CCCCNC(=O)OCc1ccccc1)C(=O)O)[C@@H](CCC(=O)O)C(=O)O` [P019, (9S,13S)-12-Methyl-3,11-dioxo-1-phenyl-2-oxa-4,10,12-triazapentadecane-9,13,15-tricarboxylic Acid] came in with an inhibition constant (Ki) of 37.5 nM. The “PSMA Blkg % (10 μM)” value (compound at 10 μM) came to 97%. As for `[N-]=[N+]=Nc1ccc(CCCC(=O)NS(=O)(=O)N[C@@H](CCC(=O)O)C(=O)O)cc1` [P181, (S)-2-((N-(4-(4-Azidophenyl)butanoyl)sulfamoyl)amino)pentanedioic Acid], under “compound at 10 μM”, the “PSMA Blkg % (10 μM)” value was found to be 39%. For the compound `O=C(O)CC[C@H](NC(=O)N[C@@H](CCCCNC(=O)c1ccc(F)cc1)C(=O)O)C(=O)O` [P155], the affinity, expressed as Ki, was 3.1 nM. In addition, the “PSMA Blkg % (10 μM)” value (compound at 10 μM) amounted to 97%. With `O=C(O)CCC(NC(=O)N[C@@H](CCC(=O)O)C(=O)O)C(=O)O` (stereo partly shown) [P060], the “PSMA Blkg % (10 μM)” value (compound at 10 μM) was found to be 96%.

For `C#Cc1ccc(C(=O)NCCCC[C@@H](C(=O)O)N(O)C(=O)N[C@@H](CCC(=O)O)C(=O)O)cc1` [P168, (S)-2-(3-((S)-1-Carboxy-5-(4-ethynylbenzamido)pentyl)-3-hydroxyureido)pentanedioic Acid], under “compound at 10 μM”, the “PSMA Blkg % (10 μM)” value is listed as 98%. As to `O=C(O)CC[C@H](NC(=O)C[C@@H](NC(=O)Cn1cc(CCCF)nn1)C(=O)O)C(=O)O` [P228, (S)-2-((R)-3-Carboxy-3-(2-(4-(3-fluoropropyl)-1H-1,2,3-triazol-1-yl)acetamido)propanamido)-pentanedioic Acid], the “PSMA Blkg % (1.0 μM)” value is 24%. Regarding `CCC1(CC)C(=O)N([C@@H](CCCCNCc2ccc([N+](=O)[O-])cc2)C(=O)O)C(=O)N([C@@H](CCC(=O)O)C(=O)O)C1=O` [P110, (S)-2-(3-((S)-1-carboxy-5-(4-nitrobenzylamino)pentyl)-5,5-diethyl-2,4,6-trioxotetrahydropyrimidin-1(2H)-yl)pentanedioic Acid], where the note is “compound at 10 μM”, the “PSMA Blkg % (10 μM)” value came out at 8%. `CN(C(=O)N[C@@H](CCC(=O)O)C(=O)O)[C@@H](CCCCNC(=O)OCc1ccccc1)C(=O)O` [P018, (9S,13S)-10-Methyl-3,11-dioxo-1-phenyl-2-oxa-4,10,12-triazapentadecane-9,13,15-tricarboxylic Acid] came in with a Ki of 15.6 nM. Further, the “PSMA Blkg % (10 μM)” value (compound at 10 μM) stood at 99%. For `CN1C(=O)N(C(CCC(=O)O)C(=O)O)C(=O)[C@@H]1CCCCNC(=O)c1ccc(N=[N+]=[N-])cc1` (stereo partly drawn) [P086, 2-((S)-4-(4-(4-Azidobenzamido)butyl)-3-methyl-2,5-dioxoimidazolidin-1-yl)-pentanedioic Acid], the “PSMA Blkg % (10 μM)” value (compound at 10 μM) is reported as 25%. Regarding `O=C(O)CC[C@@H](C(=O)O)N1C(=O)CC(=O)N(Cc2ccccc2)C1=O` [P095, (S)-2-(3-Benzyl-2,4,6-trioxotetrahydropyrimidin-1(2H)-yl)pentanedioic Acid], the “PSMA Blkg % (10 μM)” value (compound at 10 μM) is on record as 4%. `O=C(O)CCN(CC(=O)O)NC(=O)NC(CSCc1ccccc1)C(=O)O` (stereo not shown) [P017, 3-(Benzylthio)-2-(2-(2-carboxyethyl)-2-(carboxymethyl)-hydrazinecarboxamido)propanoic Acid]: the “PSMA Blkg % (10 μM)” value (compound at 10 μM) was determined as 0%. Turning to `CN(C(=O)N[C@@H](CCC(=O)O)C(=O)O)[C@@H](CCCCNC(=O)c1ccc(OCCF)cc1)C(=O)O` [P161], the “PSMA Blkg % (10 μM)” value (compound at 10 μM) turned out to be 96%.

Consider `O=C(O)CC[C@H](NC(=O)C[C@@H](NC(=O)CCCc1ccc(-n2cc(CCCF)nn2)cc1)C(=O)O)C(=O)O` [P219, (S)-2-((R)-3-Carboxy-3-(4-(4-(4-(3-fluoropropyl)-1H-1,2,3-triazol-1-yl)phenyl)butanamido)-propanamido)pentanedioic Acid], for which, under “10 μM”, the “PSMA Blkg % (10 μM)” value is listed as 74%. Regarding `O=C(O)CCC(CP(=O)(O)OCC1CCN(C(=O)CCCc2ccc(-n3cc(CCCF)nn3)cc2)CC1)C(=O)O` (stereo not shown) [P226, 2-((((1-(4-(4-(4-(3-Fluoropropyl)-1H-1,2,3-triazol-1-yl)phenyl)butanoyl)piperidin-4-yl)methoxy)(hydroxy)phosphoryl)methyl)pentanedioic Acid], the “PSMA Blkg % (1.0 μM)” value amounted to 32%. For the compound `CCC1(CC)C(=O)N([C@@H](CCCCNS(=O)(=O)c2ccc([N+](=O)[O-])cc2)C(=O)O)C(=O)N([C@@H](CCC(=O)O)C(=O)O)C1=O` [P107, (S)-2-(3-((S)-1-Carboxy-5-(4-nitrophenylsulfonamido)pentyl)-5,5-diethyl-2,4,6-trioxotetrahydropyrimidin-1(2H)-yl)pentanedioic Acid], the “PSMA Blkg % (10 μM)” value (compound at 10 μM) is 19%. Same read-out and setting: the value for `CN(C(=O)N[C@@H](CCC(=O)O)C(=O)O)[C@@H](CCCCNC(=O)OCc1ccc([N+](=O)[O-])cc1)C(=O)O` [P176, (9S,13S)-10-Methyl-1-(4-nitrophenyl)-3,11-dioxo-2-oxa-4,10,12-triazapentadecane-9,13,15-tricarboxylic Acid] was 77%.

The values above are taken from patent US10894807B2 (Siemens Medical Solutions USA, Inc., priority 2011, dated 2021).
